In experiment [1] the test system is A/HuNan-ZhuHui/1222/2010 (H3N2). As to the kind of experiment: CPE reduction assay, HN/1222 (H3N2). The note with it: Influenza A virus. Type of experiment: cell-based.
The subject of experiment [2] is A/LiaoNing-ZhenXing/1109/2010(H1N1). As to the kind of experiment: CPE reduction assay, LN/1109 (H1N1). The note with it: Influenza A virus. Type of experiment: cell-based.

Read-outs that look alike come from different tables or passages of the source.

By EC50 is commonly meant the concentration at which the effect is half-maximal. On to `NC12CC3CC(CC(C3)C1)C2` [Amantadine, amantadine, reference compound], for which the values for the EC50 in experiment [1] (read-out: EC50) and in experiment [2] (read-out: EC50) were above 200 µM and 0.44 ± 0.14 µM, respectively.

For the molecule `CC1(C)CC[C@]2(C(=O)O[C@H]3OC(CO)[C@@H](O)C(O)C3O)C(O)C[C@]3(C)C(=CC[C@@H]4[C@@]5(C)CC[C@H](O)C(C)(C)[C@@H]5CC[C@]43C)[C@@H]2C1` (stereo partly drawn) [Compound Q9, 3β,16α-dihydroxy-olean-12-en-28-oic acid-28-O-(β-D-galactoside)], the EC50 in experiment [1] (read-out: EC50) turned out to be 25.6 ± 9.14 µM; in experiment [2] (read-out: EC50) it was 17.8 ± 12.6 µM.

Turning to `CC1(C)CC[C@@]2(C(=O)N[C@H]3OC(CO)[C@@H](O)C(O)C3O)C(C1)C1=CCC3[C@@]4(C)CC[C@H](O)C(C)(C)C4CC[C@@]3(C)[C@]1(C)C[C@H]2O` (stereo partly drawn) [Compound Y2, 3β,16α-dihydroxy-olean-12-en-28-oic acid-28-N-(β-D-galactoside)], the EC50 in experiment [1] (read-out: EC50) and in experiment [2] (read-out: EC50) was above 22.2 µM in each case.

Take `CC(=O)OCC1O[C@H](NC(=O)[C@]23CCC(C)(C)CC2C2=CCC4[C@@]5(C)CC[C@H](O)C(C)(C)C5CC[C@@]4(C)[C@]2(C)CC3)C(OC(C)=O)C(OC(C)=O)[C@@H]1OC(C)=O` (stereo partly drawn) [Compound Y5, 3β-hydroxy-olean-12-en-28-oic acid-28-N-(2,3,4,6-tetra-O-acetyl-β-D-galactoside)]: the EC50 in experiment [1] (read-out: EC50) was determined as 3.18 ± 0.08 µM; in experiment [2] (read-out: EC50), 6.58 ± 1.17 µM.

Regarding `CCOC(=O)C1=C[C@@H](OC(CC)CC)[C@H](NC(C)=O)[C@@H](N)C1` [OSV-P, oseltamivir phosphate, reference compound], the EC50 in experiment [1] (read-out: EC50) was 8.75 ± 4.41 µM; in experiment [2] (read-out: EC50), above 200 µM.

In the case of `NC(=O)c1ncn([C@@H]2O[C@H](CO)[C@@H](O)[C@H]2O)n1` [RBV, ribavirin, reference compound], the EC50 in experiment [1] is 3.56 ± 0.24 µM; in experiment [2], 5.75 ± 0.35 µM.

The values are drawn from US9920088B2, “Triterpene derivative and its anti-influenza use” (Peking University, priority 2012, dated 2018).
